Patent publication US5648354A, “1,2-dithiins having antifungal activity” (Shaman Pharmaceuticals, Inc., priority 1995, dated 1997)
≈ marks a conversion by molar mass, not a printed value.

Assays:
Assay in all cases: In vitro antifungal activity (minimum inhibitory concentration)
Assay type in all cases: cell-based
[1] = system: Cryptococcus neoformans ATCC36556; details: read-out: Minimum Inhibitory Concentration (MIC) CN
Protocol: (§1) The antifungal activities of representative 1,2-dithiin compounds listed below were determined in vitro using three fungal cultures: Candida albicans ATCC10259 (CA), Cryptococcus neoformans ATCC36556 (CN), and Aspergillus fumigatus ATCC13073 (AF).
(§2) The method used to determine in vitro antifungal activity is discussed in McGinnis, M. R., Laboratory Handbook of Medical Mycology, Academic Press, New York, London, p 661 (1980); and Drouget, E.; Dupont, B.; Improvist, L.; Vivian, M. A.; and Tortorano, A. M.; "Disc Agar Diffusion and Microplate Automatized Techniques for In Vitro Evaluation of Antifungal Agents on Yeast and Sporulated Pathogenic Fungi" in In Vitro and In Vivo Evaluation of Antifungal Agents, Eds. lwata, K. and Vanden Bossche, H., Elsevier Science Publishers, New York, Oxford, p. 303 (1986).

[2] = system: Aspergillus fumigatus ATCC13073; details: read-out: Minimum Inhibitory Concentration (MIC) AF
Protocol: as §1, §2

[3] = system: Candida albicans ATCC10259; details: read-out: Minimum Inhibitory Concentration (MIC) CA
Protocol: as §1, §2

Row | Compound | MIC [1] [µg/mL] | MIC [2] [µg/mL] | MIC [3] [µg/mL]
1 | CC1(C)OCC(COCC2=CC=C(COCC3COC(C)(C)O3)SS2)O1 (stereo not drawn) [3,6-Bis[[(2,2-dimethyl-1,3-dioxolan-4-yl)methyloxy]methyl]-1,2-dithiin] | > 100 | > 100 | > 100
2 | OCC1=CC=C(COc2ccccc2F)SS1 [3-(Hydroxymethyl)-6-[(2-fluorophenyloxy)methyl]-1,2-dithiin] | 1.6 (≈ 5.92 µM) | 3.1 (≈ 11.5 µM) | 3.1 (≈ 11.5 µM)
3 | OCC1=CC=C(COc2ccccc2C(F)(F)F)SS1 [3-(Hydroxymethyl)-6-[(2-trifluoromethylphenyloxy)methyl]-1,2-dithiin] | 6.3 (≈ 19.7 µM) | 50 (≈ 156 µM) | 25 (≈ 78 µM)
4 | OCC1=CC=C(COc2cccc(O)c2)SS1 [3-(Hydroxymethyl)-6-[(3-hydroxyphenyloxy)methyl]-1,2-dithiin] | 100 (≈ 373 µM) | > 100 | 50 (≈ 186 µM)
5 | O=c1ccc(O)nn1CC1=CC=C(CO)SS1 [3-(Hydroxymethyl)-6-[(3-hydroxypyridazin-6-one-1-yl)methyl]-1,2-dithiin] | > 100 | > 100 | > 100
6 | OCC1=CC=C(COc2ccc(O)nn2)SS1 [3-(Hydroxymethyl)-6-[(3-hydroxypyridazine-6-oxy)methyl]-1,2-dithiin] | > 100 | > 100 | > 100
7 | O=c1ccc([N+](=O)[O-])cn1CC1=CC=C(CO)SS1 [3-(Hydroxymethyl)-6-[(5-nitropyrid-2-one-1-yl)methyl]-1,2-dithiin] | 100 (≈ 335 µM) | > 100 | > 100
8 | OCC1=CC=C(COc2ccccn2)SS1 [3-(Hydroxymethyl)-6-[(pyridyl-2-oxy)methyl]-1,2-dithiin] | 3.1 (≈ 12.2 µM) | 3.1 (≈ 12.2 µM) | 3.1 (≈ 12.2 µM)
9 | OCC1=CC=C(COc2cccnc2)SS1 [3-(Hydroxymethyl)-6-[(pyridyl-3-oxy)methyl]-1,2-dithiin] | 1.6 (≈ 6.32 µM) | 3.1 (≈ 12.2 µM) | 3.1 (≈ 12.2 µM)
10 | OCC1=CC=C(COc2nc3ccccc3nc2O)SS1 [3-(Hydroxymethyl)-6-[methyloxy[3-hydroxyquinoxalin-2-yl]]-1,2-dithiin] | 25 (≈ 78 µM) | 100 (≈ 312 µM) | 50 (≈ 156 µM)
11 | OCC1=CC=C(CSc2nnnn2-c2ccc(O)cc2)SS1 [3-(Hydroxymethyl)-6-[methylthio-[1-(4-hydroxyphenyl)tetrazol-5-yl]]-1,2-dithiin] | 6.3 (≈ 17.9 µM) | 12.5 (≈ 35.5 µM) | 25 (≈ 70.9 µM)

Continued, values first:

Row | MIC [1] [µg/mL] | MIC [2] [µg/mL] | MIC [3] [µg/mL] | Compound
12 | 3.1 (≈ 11.1 µM) | 3.1 (≈ 11.1 µM) | 6.3 (≈ 22.5 µM) | O=C(OCC1=CC=C(CO)SS1)c1ccccc1 [3-(Benzoyloxymethyl)-6-(hydroxymethyl)-1,2-dithiin]
13 | 1.6 (≈ 4.51 µM) | 6.3 (≈ 17.8 µM) | 1.6 (≈ 4.51 µM) | OCC1=CC=C(COc2cc(C(F)(F)F)ccc2Cl)SS1 [3-(Hydroxymethyl)-6-[(2-chloro-5-trifluoromethyl-phenyloxy)methyl]-1,2-dithiin]
14 | 1.6 (≈ 5.79 µM) | 6.3 (≈ 22.8 µM) | 1.6 (≈ 5.79 µM) | C#Cc1cccc(OCC2=CC=C(CO)SS2)c1 [3-(Hydroxymethyl)-6-[(3-ethynylphenyloxy)methyl]-1,2-dithiin]
15 | 12.5 (≈ 49.5 µM) | 25 (≈ 99.1 µM) | 25 (≈ 99.1 µM) | OCC1=CC=C(COc2ccccc2)SS1 [3-(Hydroxymethyl)-6-[(phenyloxy)methyl]-1,2-dithiin]
16 | 12.5 (≈ 49.3 µM) | > 100 | > 100 | O=c1ccccn1CC1=CC=C(CO)SS1 [3-(Hydroxymethyl)-6-[(pyrid-2-one-1-yl)methyl]-1,2-dithiin]
17 | 50 (≈ 169 µM) | 100 (≈ 338 µM) | > 50 | CN(C)c1cccc(OCC2=CC=C(CO)SS2)c1 [3-(Hydroxymethyl)-6-[[3-(N,N-dimethylamino)phenyloxy]methyl]-1,2-dithiin]
18 | > 100 | > 100 | > 100 | CC1(C)OCC(COCC2=CC=C(CO)SS2)O1 (stereo not drawn) [3-(Hydroxymethyl)-6-[[(2,2-dimethyl-1,3-dioxolan-4-yl)methyloxy]methyl]-1,2-dithiin]
19 | > 100 | > 100 | > 100 | OCC1=CC=C(COCC(O)CO)SS1 (stereo not drawn) [3-(Hydroxymethyl)-6-[methyloxy(2,3-dihydroxypropane-1-yl)]-1,2-dithiin]
20 | 6.3 (≈ 20.3 µM) | 12.5 (≈ 40.3 µM) | 6.3 (≈ 20.3 µM) | COC(=O)c1ccccc1OCC1=CC=C(CO)SS1 [3-(Hydroxymethyl)-6-[methyloxy[methyl benzoate-2-yl]]-1,2-dithiin]
21 | 6.3 (≈ 20.3 µM) | 25 (≈ 80.5 µM) | 3.1 (≈ 9.99 µM) | COC(=O)c1cccc(OCC2=CC=C(CO)SS2)c1 [3-(Hydroxymethyl)-6-[methyloxy[methyl benzoate-3-yl]]-1,2-dithiin]
22 | 0.1 (≈ 0.335 µM) | 0.4 (≈ 1.34 µM) | 0.2 (≈ 0.67 µM) | O=[N+]([O-])c1ccc(OCC2=CC=C(CO)SS2)nc1 [3-(hydroxymethyl)-6-[(5-nitropyridyl-2-oxy)methyl]-1,2-dithiin]
23 | 100 (≈ 314 µM) | 100 (≈ 314 µM) | 12.5 (≈ 39.3 µM) | OCC1=CC=C(COc2ccc(-n3ccnc3)cc2)SS1 [3-(hydroxymethyl)-6-[[4-(imidazol-1-yl)phenyloxy]methyl]-1,2-dithiin]
24 | 3.1 (≈ 9.99 µM) | 12.5 (≈ 40.3 µM) | 3.1 (≈ 9.99 µM) | COC(=O)c1ccc(OCC2=CC=C(CO)SS2)cc1 [3-(hydroxymethyl)-6-[methyloxy[methyl benzoate-4-yl]]-1,2-dithiin]
25 | > 100 | > 100 | > 100 | CC1(C)OCC(COCC2=CC=C(COCC(O)CO)SS2)O1 (stereo not drawn) [3-[[(2,2-Dimethyl-1,3-dioxolan-4-yl)methyloxy]methyl]-6-[methyloxy(2,3-dihydroxypropane-1-yl)]-1,2-dithiin]
